According to US20250074892A1, “CARBONYL BRIDGED HETEROCYCLIC COMPOUND, AND COMPOSITION AND APPLICATION THEREOF” (BEIJING SCITECH-MQ PHARMACEUTICALS LIMITED, priority 2022, published 2025):

Target: T1, RIPK1 (Homo sapiens, UniProt Q13546)
T1 construct: intracellular RIPK1 and its phosphorylation during the process of inducing programmed necrosis of HT29 cells; endogenous in cells; host or cells: HT29 cells
T1 sequence (Q13546 1-671): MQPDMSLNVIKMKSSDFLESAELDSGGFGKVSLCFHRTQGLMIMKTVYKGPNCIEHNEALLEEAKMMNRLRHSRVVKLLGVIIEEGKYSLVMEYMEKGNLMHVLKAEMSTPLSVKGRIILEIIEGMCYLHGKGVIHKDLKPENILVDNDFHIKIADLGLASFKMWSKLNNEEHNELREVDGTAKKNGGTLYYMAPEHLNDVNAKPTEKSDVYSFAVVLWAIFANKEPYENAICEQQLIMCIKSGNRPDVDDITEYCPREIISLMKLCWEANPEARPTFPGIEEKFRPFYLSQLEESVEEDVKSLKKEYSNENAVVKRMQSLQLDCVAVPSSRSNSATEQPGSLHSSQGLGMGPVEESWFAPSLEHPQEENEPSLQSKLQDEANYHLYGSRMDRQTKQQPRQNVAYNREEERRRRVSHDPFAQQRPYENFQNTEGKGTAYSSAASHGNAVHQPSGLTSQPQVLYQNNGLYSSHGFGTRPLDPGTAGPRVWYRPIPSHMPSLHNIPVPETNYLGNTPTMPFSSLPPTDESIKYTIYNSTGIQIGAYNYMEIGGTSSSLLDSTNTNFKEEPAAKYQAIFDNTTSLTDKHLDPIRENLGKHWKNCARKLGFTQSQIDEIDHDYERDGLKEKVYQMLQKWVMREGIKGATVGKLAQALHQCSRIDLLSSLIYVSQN
Assay: Western Blot detection of inhibition of RIPK1 phosphorylation in HT29 cells
Assay type: cell-based
Conditions: Z-VAD-FMK/TNF-α/AT-406 induction, 7 hours
Method: In this assay, Western blot was used to detect the effect of the test compound on intracellular RIPK1 and its phosphorylation during the process of inducing programmed necrosis of HT29 cells to verify the inhibitory effect of the compound on RIPK1 phosphorylation.
a) HT29 cells in good condition were collected, resuspended in McCoy's 5A complete medium and counted. The cells were seeded in a 12-well plate at a cell density of 1×10 6/1 mL/well, and placed in a 37° C. cell culture incubator overnight.
b) Z-VAD-FMK (at final concentration of 20 μM) was added to the above 12-well plate. After 30 minutes, the inducer (where the final concentration of TNF-α was 20 ng/mL, and the final concentration of AT-406 was 100 nM), and the test compound of different concentrations was then added, and incubated in a cell incubator at 37° C. for 7 hours.
c) Preparation of complete lysate: A tube of aliquoted RIPA lysate was thawed, and then phosphatase inhibitor and Roche protease inhibitor were added respectively (phosphatase inhibitor: RIPA=1:100; Roche protease inhibitor: RIPA=4:100); the mixture was placed on ice for later use; […]
g) The BCA kit was used for detection and the protein concentration was calculated; […]
7. […] The membrane was cut according to the molecular weight of the protein to be detected based on the marker band indication. […]

SMILES: O=C(C1CCN(c2cc(-c3cc(OCCCO)ccc3F)ccn2)CC1)N1N=CC[C@H]1c1cc(F)cc(F)c1 (racemic) [Example 40]
- effect on RIPK1 total protein: no obvious inhibitory effect on RIPK1
- inhibition of RIPK1 phosphorylation (Western Blot, ratio to total RIPK1): directly inhibits the phosphorylation activity of RIPK1 and shows a dose-dependent relationship
